Source: publication PMC4448982, “LP-925219 maximizes urinary glucose excretion in mice by inhibiting both renal SGLT1 and SGLT2” (Pharmacology Research & Perspectives, 2015)

Assays:
dog SGLT1 = biological target: T1, dog SGLT1 (Canis lupus familiaris, UniProt A0A8I3PYH5); experiment: 14C-AMG uptake assay, cells expressing dog SGLT1; assay type: cell-based; settings: mean ± SD
T1 sequence (A0A8I3PYH5 1-662): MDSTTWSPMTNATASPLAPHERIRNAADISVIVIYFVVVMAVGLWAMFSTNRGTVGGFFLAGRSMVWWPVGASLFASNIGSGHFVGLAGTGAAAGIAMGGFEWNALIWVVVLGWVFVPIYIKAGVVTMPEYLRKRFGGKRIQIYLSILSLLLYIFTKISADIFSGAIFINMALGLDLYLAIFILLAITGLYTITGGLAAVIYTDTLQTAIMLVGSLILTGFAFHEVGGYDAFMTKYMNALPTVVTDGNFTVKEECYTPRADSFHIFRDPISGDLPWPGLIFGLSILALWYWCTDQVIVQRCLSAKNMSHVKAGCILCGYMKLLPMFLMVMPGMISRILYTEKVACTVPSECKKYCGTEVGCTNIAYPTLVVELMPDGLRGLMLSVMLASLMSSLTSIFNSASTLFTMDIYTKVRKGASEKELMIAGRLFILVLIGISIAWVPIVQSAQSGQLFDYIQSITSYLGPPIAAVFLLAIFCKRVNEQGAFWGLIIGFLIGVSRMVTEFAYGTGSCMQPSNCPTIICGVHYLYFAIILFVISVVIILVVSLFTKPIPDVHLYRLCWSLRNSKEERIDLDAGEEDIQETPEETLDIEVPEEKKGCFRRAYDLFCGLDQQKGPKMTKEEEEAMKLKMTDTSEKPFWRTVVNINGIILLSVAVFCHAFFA
Text: (§1) Methods for generating cell lines expressing mouse, rat, and dog SGLT1 and SGLT2 are published (Powell et al. [2013b], [2014]). Full-length coding sequence of human SGLT1 (NP_000334) and human SGLT2 (NP_003032.1) with an HA-tag at the N-terminus were cloned into the mammalian expression vector pIRESpuro2 (Clontech, Mountain View, CA). HEK293 cells (ATCC, Manassas, VA) were transfected with the pIRESpuro2 vector containing human SGLT1 or SGLT2 and bulk stable cell lines were selected in the presence of 0.5 μg/mL of puromycin.
(§2) Cell lines expressing SGLT1 or SGLT2 were plated into poly-D-lysine-coated 384-well plates, and culture overnight in cell growth medium. Cells were washed, and then incubated in uptake buffer ([…], […] KCl, […] CaCl2, […] MgCl2, […] HEPES/Tris, 1 mg/mL of bovine serum albumin, pH7.4) containing [^14C]α-methylglucopyranoside (^14C-AMG), a nonmetabolizable glucose analog specific for sodium-dependent glucose transporters (Wright and Turk [2004]). The inhibition of SGLT1 or SGLT2 was determined by measuring SGLT1/2-mediated ^14C-AMG uptake in the presence of increasing compound concentrations of LP-925219. […] Standard sigmoidal dose–response model curves were fitted, and the IC50 value was computed as the LP-925219 concentration that inhibited the ^14C-AMG uptake by 50% between baseline and maximum uptake.

human SGLT1 = biological target: T2, human SGLT1 (Homo sapiens, UniProt P13866); experiment: 14C-AMG uptake assay, HEK293 cells expressing human SGLT1; assay type: cell-based; design: expressed in transfected cells; settings: mean ± SD
T2 sequence (P13866 1-664): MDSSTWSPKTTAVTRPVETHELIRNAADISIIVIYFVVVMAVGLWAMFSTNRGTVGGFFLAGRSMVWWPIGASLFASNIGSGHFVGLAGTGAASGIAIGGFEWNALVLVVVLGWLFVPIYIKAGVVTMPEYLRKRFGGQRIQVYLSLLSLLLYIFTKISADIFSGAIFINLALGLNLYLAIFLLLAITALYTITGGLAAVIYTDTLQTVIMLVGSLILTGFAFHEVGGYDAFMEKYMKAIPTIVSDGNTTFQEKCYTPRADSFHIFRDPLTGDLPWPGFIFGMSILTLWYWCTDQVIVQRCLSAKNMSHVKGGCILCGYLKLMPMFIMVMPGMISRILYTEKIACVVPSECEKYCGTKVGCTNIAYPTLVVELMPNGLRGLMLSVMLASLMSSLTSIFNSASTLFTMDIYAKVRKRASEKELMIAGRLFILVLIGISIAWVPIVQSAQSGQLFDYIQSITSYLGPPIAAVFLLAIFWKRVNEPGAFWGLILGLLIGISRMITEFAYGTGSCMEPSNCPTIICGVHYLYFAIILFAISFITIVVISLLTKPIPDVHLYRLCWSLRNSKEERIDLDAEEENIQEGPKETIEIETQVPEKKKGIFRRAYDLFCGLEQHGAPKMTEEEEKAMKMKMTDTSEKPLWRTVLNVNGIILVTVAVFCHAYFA
Text: as §1, §2

human SGLT2 [1] = biological target: T3, human SGLT2 (Homo sapiens, UniProt P31639); experiment: 14C-AMG uptake assay, HEK293 cells expressing human SGLT2; assay type: cell-based; design: expressed in transfected cells; settings: mean ± SD
T3 sequence (P31639 1-672): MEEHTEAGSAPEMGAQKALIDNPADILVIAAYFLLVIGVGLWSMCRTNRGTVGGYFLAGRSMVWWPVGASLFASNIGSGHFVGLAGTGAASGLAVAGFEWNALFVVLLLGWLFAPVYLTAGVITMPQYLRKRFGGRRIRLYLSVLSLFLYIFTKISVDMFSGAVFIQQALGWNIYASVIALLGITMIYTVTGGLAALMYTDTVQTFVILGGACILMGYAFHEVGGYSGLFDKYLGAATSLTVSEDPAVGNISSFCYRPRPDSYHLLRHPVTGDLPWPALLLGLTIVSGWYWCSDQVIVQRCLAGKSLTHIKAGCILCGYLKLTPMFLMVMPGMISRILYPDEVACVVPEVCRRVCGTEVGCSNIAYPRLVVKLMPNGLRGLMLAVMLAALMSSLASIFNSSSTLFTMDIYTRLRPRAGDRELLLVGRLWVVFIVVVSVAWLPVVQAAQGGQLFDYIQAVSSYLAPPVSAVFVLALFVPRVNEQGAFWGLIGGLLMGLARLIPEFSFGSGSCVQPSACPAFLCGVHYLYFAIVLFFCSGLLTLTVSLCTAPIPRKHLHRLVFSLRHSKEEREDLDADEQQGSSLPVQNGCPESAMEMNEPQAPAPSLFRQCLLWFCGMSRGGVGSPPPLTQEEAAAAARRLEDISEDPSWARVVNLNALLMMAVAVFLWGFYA
Text: as §1, §2

human SGLT2 [2] = biological target: T3, human SGLT2; experiment: Compound washout study, cells expressing human SGLT2
Text: Cells expressing human SGLT2 were studied using the above protocol. […] Cells expressing human SGLT2 were studied using the above protocol.

COc1ccc(Cc2cc([C@@H]3O[C@H](SC)[C@@H](O)[C@H](O)[C@H]3O)ccc2Cl)cc1 [LP-925219] gave an IC50 (dog SGLT1) of 30.2 ± 2 nM, an IC50 (human SGLT1) of 15.9 ± 4.2 nM and an IC50 (human SGLT2 [1]) of 2.1 ± 0.5 nM. The IC50 (human SGLT2 [2]; no wash protocol) was 2.2 nM and the IC50 (human SGLT2 [2]; washout protocol, 18-20 h recovery after 30 min treatment) was 6.8 nM.
